Test results from PMC10030409 (Investigational New Drugs, 2023).

How the values were obtained:
[1] = cited from earlier work; for Fraction of metabolite conversion from the parent: fixed in the PopPK model
[2] = clinical; conditions: human, in vivo
Procedure: Patients were asked to determine the time of drug intake. The collected serum and whole peripheral blood samples were stored at − 80 °C until analysis.
Several candidate PopPK models with different structures were compared based on the goodness-of-fit (GOF) plots and the objective function value (OFV) expressed as minus twice log likelihood (−2LL), and the difference in OFV between the two nested models was statistically evaluated using the chi-square test (the decrease in −2LL >3.84, p < 0.05, was considered statistically significant).
Stepwise covariate analysis was performed to evaluate the effect of covariates on clearance and volume of distribution. The significance of the effect was assessed by the −2LL value; decrease in −2LL of >3.84 (p < 0.050) for the forward addition was considered significant. The impact of body weight (BW), albumin (ALB), age (AGE), sex, aspartate aminotransferase (AST), and alanine aminotransferase (ALT) levels on CLparent/F, CLm5/F, and CLm7/F was evaluated. In addition, BW, ALB, AGE, and sex were evaluated on Vparent/F, Vm5/F, and Vm7/F. The covariates were modeled as shown in equation (c) in the power form for continuous covariates, equation (d) with log-transformation for continuous covariates with outliers, and equation (e) for categorical covariates: […]
The candidate PopPK models were evaluated by goodness of fit, ∆−2LL values, η-shrinkage, and relative standard error (RSE%). […] The uncertainty of the parameters was estimated by performing a bootstrap. The original dataset was randomly resampled to generate 1000 samples, and the parameters estimated from the successful runs were compared to those estimated from the original dataset.

[3] = in vivo
[4] = system: wild-type EGFR; conditions: higher potency; cited from earlier work

| Compound | Circulating exposure of active metabolite relative to the parent compound [1] [%] | Half-life [1] [h] | Fraction of metabolite conversion from the parent [1] [%] | AUC0–24 at steady state, median (IQR) [2] | Clearance CL/F (θ1, θ4, θ6) [2] [L/h] | Coefficient of variation for clearance (CL/F) [2] [%] | Association between AUC0–24 and grade ≥ 2 anorexia ([3]; human) | Association between AUC0–24 and grade ≥ 2 increased creatinine ([3]; human) | Association between AUC0–24 and grade ≥ 2 paronychia ([3]; human) | Sensitivity of AUC0–24 cut-off for grade ≥ 2 AEs ([3]; human) [%] | Specificity of AUC0–24 cut-off for grade ≥ 2 AEs ([3]; human) [%] | Area under the ROC curve for predicting grade ≥ 2 AEs using AUC0–24 [3] | Cut-off AUC0–24 to predict grade ≥ 2 AEs [3] [ng·h/mL] | Potency against wild-type EGFR compared with the parent compound [4] [fold] | Inter-occasion variance of clearance (ω^2 CL,IOV) [2] |
| --- | --- | --- | --- | --- | --- | --- | --- | --- | --- | --- | --- | --- | --- | --- | --- |
| C=CC(=O)Nc1cc(Nc2nccc(-c3cn(C)c4ccccc34)n2)c(OC)cc1N(C)CCNC [AZ7550] | 10 | 72.7 | 25 | 367 (275–516) ng/mL*h | 46.2 | 27 | significant association | significant association | significant association | 49 | 90 | 0.651 | 462 |  |  |
| C=CC(=O)Nc1cc(Nc2nccc(-c3c[nH]c4ccccc34)n2)c(OC)cc1N(C)CCN(C)C [AZ5104] |  | 52.6 | 25 |  | 44.41 | 35 |  |  |  |  |  |  |  | 15 | 0.034 |
